Experimental data from article PMC3145970, “Specific CLK Inhibitors from a Novel Chemotype for Regulation of Alternative Splicing” (Chemistry & Biology, 2011).
Like-named read-outs stand apart in the source and are kept apart here.

What was measured:
Experiment in all cases: Thermal stability shift assay
Assay type in all cases: binding
Haspin = target: T1, Haspin (Homo sapiens, UniProt Q8TF76); conditions: read-out: Tm shift Haspin
T1 construct: purchased in-house (SGC Oxford thermal shift panel)
T1 sequence (Q8TF76 1-798): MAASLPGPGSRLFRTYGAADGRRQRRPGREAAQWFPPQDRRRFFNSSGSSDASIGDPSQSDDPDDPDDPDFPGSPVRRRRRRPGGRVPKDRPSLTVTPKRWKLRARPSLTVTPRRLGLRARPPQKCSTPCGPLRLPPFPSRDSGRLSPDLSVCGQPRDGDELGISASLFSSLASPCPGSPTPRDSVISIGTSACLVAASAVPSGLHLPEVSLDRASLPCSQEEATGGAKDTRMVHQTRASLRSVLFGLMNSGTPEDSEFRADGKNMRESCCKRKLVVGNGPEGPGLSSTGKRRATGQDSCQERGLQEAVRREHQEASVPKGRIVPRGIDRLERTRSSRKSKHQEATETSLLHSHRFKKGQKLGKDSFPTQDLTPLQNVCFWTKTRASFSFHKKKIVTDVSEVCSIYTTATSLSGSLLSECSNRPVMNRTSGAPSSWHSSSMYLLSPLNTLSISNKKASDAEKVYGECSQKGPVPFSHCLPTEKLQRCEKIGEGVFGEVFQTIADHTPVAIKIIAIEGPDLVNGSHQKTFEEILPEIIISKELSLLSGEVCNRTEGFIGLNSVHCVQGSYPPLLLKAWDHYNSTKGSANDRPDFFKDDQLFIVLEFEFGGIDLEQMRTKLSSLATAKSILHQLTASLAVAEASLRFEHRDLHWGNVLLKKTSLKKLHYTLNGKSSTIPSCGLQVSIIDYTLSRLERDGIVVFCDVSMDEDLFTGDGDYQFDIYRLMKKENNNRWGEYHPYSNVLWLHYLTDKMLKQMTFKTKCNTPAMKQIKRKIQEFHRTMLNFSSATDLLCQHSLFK
How it was run: (§1)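 Protein at 2 μM was heated with 10 μM inhibitor in 10 mM HEPES pH 7.5, 500 mM NaCl containing SyproOrange (1:1000 dilution); thermal denaturation was followed by fluorescence in a real-time PCR instrument.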

MST4 = target: T2, MST4 (Homo sapiens, UniProt Q9P289); conditions: read-out: Tm shift MST4
T2 construct: purchased in-house (SGC Oxford thermal shift panel)
T2 sequence (Q9P289 whole entry): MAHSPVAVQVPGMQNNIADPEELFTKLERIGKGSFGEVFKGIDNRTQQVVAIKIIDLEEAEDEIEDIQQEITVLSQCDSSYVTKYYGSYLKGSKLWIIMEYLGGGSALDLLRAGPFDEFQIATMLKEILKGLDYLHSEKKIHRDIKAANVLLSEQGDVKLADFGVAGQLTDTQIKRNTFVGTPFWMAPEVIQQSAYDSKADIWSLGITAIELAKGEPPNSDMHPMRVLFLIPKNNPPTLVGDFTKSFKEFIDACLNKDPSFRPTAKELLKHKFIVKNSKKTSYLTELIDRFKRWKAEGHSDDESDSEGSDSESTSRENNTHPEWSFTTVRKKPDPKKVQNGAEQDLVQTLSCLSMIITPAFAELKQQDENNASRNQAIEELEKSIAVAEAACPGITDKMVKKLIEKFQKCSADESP
How it was run: as §1

GAK = target: T3, GAK (Homo sapiens, UniProt O14976); conditions: read-out: Tm shift GAK
T3 construct: purchased in-house (SGC Oxford thermal shift panel)
T3 sequence (O14976 1-1311): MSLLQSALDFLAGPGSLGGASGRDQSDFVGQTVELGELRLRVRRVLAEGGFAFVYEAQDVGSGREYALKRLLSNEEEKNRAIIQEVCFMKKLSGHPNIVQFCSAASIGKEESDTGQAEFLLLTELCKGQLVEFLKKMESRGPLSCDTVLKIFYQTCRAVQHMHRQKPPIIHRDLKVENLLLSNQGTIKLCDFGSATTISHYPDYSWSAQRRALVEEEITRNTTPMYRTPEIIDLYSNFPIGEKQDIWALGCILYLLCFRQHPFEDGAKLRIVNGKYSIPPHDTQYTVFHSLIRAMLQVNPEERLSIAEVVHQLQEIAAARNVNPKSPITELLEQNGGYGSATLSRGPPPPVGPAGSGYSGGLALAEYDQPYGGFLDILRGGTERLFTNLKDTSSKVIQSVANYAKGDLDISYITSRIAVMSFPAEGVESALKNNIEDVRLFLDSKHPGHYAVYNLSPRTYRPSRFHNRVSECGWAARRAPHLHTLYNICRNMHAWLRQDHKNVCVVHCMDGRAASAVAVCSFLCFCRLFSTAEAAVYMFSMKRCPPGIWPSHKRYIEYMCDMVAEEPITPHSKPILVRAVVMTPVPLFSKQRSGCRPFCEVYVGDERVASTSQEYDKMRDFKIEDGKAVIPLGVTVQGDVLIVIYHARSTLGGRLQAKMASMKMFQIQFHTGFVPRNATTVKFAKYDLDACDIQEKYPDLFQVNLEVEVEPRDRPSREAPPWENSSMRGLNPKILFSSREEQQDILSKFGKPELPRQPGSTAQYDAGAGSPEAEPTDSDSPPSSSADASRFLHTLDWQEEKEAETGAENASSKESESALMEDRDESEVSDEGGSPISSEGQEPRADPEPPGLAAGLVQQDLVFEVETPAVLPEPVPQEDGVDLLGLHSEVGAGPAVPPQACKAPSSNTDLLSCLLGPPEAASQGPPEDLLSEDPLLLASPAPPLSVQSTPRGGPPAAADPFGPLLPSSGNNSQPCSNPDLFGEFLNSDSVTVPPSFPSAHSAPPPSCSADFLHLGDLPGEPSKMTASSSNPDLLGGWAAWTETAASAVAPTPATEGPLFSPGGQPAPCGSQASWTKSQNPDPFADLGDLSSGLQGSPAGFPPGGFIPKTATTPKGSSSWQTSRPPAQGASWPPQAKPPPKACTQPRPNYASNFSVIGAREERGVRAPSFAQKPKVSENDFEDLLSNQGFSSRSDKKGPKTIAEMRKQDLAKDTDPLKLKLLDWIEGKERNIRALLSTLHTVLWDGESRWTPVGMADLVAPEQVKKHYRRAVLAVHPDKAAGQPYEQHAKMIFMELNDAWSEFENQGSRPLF
How it was run: as §1

PBK = target: T4, PBK (Homo sapiens, UniProt Q96KB5); conditions: read-out: Tm shift PBK
T4 construct: purchased in-house (SGC Oxford thermal shift panel)
T4 sequence (Q96KB5 1-322): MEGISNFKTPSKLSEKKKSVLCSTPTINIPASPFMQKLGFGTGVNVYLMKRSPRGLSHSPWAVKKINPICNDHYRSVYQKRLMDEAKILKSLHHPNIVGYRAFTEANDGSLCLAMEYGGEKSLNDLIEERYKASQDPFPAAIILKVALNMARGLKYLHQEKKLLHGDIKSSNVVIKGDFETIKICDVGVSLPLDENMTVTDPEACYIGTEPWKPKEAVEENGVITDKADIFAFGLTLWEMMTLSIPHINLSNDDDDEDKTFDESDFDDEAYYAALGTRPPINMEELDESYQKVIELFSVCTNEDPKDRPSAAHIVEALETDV
How it was run: as §1

| ΔTm at 10 µM (Haspin; inhibitor 10 μM) [°C] | ΔTm at 10 µM (MST4; inhibitor 10 μM) [°C] | ΔTm at 10 µM (GAK; inhibitor 10 μM) [°C] | ΔTm at 10 µM (PBK; inhibitor 10 μM) [°C] | SMILES | ΔTm at 10 µM (Haspin) [°C] | ΔTm at 10 µM (MST4) [°C] | ΔTm at 10 µM (GAK) [°C] | ΔTm at 10 µM (PBK) [°C] |
| --- | --- | --- | --- | --- | --- | --- | --- | --- |
| 0.2 | -0.6 | 0.4 | -0.9 | CCOC(=O)c1c(C(C#N)=CN(C)C)c2ccc(Cl)c(Cl)c2n1C (mixture of isomers) [compound 2, (E/Z)-Ethyl 6,7-Dichloro-3-[1-Cyano-2-(Dimethylamino)Vinyl]-1-Methyl-1H-Indole-2-Carboxylate] |  |  |  |  |
|  |  |  |  | CCOC(=O)c1c(/C(C#N)=C\N)c2ccc(Cl)c(Cl)c2n1C [KH-CB19, (E)-Ethyl 3-(2-Amino-1-Cyanovinyl)-6,7-Dichloro-1-Methyl-1H-Indole-2-Carboxylate] | 2.1 | 2.4 | 0.4 | -0.3 |
|  |  |  |  | CCOC(=O)c1c(C(C#N)=CN)c2ccc(Cl)c(Cl)c2n1C (mixture of isomers) [KH-CB20, (E/Z)-Ethyl 3-(2-Amino-1-Cyanovinyl)-6,7-Dichloro-1-Methyl-1H-Indole-2-Carboxylate] | 1.8 | 0.1 | 0.8 | -0.1 |
| 2.1 | 0.4 | 0.8 | -0.4 | Cn1c2c(Cl)c(Cl)ccc2c2c(C#N)c[nH]c(=O)c21 [compound 3, 7,8-Dichloro-9-Methyl-1-Oxo-2,9-Dihydro-1H-Pyrido[3,4-b]Indole-4-Carbonitrile] |  |  |  |  |

| SMILES | ΔTm at 10 µM (Haspin; inhibitor 10 μM) [°C] | ΔTm at 10 µM (MST4; inhibitor 10 μM) [°C] | ΔTm at 10 µM (GAK; inhibitor 10 μM) [°C] | ΔTm at 10 µM (PBK; inhibitor 10 μM) [°C] | ΔTm at 10 µM (Haspin) [°C] | ΔTm at 10 µM (MST4) [°C] | ΔTm at 10 µM (GAK) [°C] | ΔTm at 10 µM (PBK) [°C] |
| --- | --- | --- | --- | --- | --- | --- | --- | --- |
| NC1=NC(=O)/C(=C2\CCNC(=O)c3[nH]c(Br)cc32)N1 [Hymenialdisine, hymenialdisine, reference compound] | 3.9 | 4.6 | 3.8 | -0.4 |  |  |  |  |
